This note sets out measurements from article PMC9688344, “[^225Ac]Ac-SibuDAB for Targeted Alpha Therapy of Prostate Cancer: Preclinical Evaluation and Comparison with [^225Ac]Ac-PSMA-617” (Cancers, 2022).

This test has as its system PSMA-positive PC-3 PIP tumor xenografts. As to the kind of experiment: Therapy study in PC-3 PIP tumor-bearing mice. The test is classed as in vivo, BALB/c nude mice. How it is done: Five days after subcutaneous inoculation of four groups of mice with either PC-3 PIP or PC-3 flu tumor cells on the right shoulder (4 × 10^6 cells in 100 μL HBSS), the mice were intravenously injected with either vehicle only (saline with 0.05% BSA, n = 6 and n = 4, respectively) or with 30 kBq [^225Ac]Ac-SibuDAB (1 nmol per mouse; n = 4 per group) diluted in vehicle (Table 1).
After tumor cell inoculation, mice bearing PC-3 PIP tumor xenografts were intravenously injected with vehicle only (n = 6) or with [^225Ac]Ac-SibuDAB or [^225Ac]Ac-PSMA-617, respectively, applied at 5 kBq or 10 kBq (1 nmol per mouse; n = 6 per group; Table 1). The control group consisted of mice from several studies (n = 12 mice) and the data from this group were published previously.
After administration of the radioligands, the mice were monitored over 8 weeks using the same measures as previously published by Umbricht et al.. The relative body mass was defined as [BMx/BM0], where BMx is the body mass in grams at a given Day x and BM0 is the body mass in grams at Day 0. The tumor dimension was determined by measuring the longest tumor axis (L) and its perpendicular axis (W) with a digital caliper. The tumor volume (V) was calculated according to the equation [V = 0.5 × (LW^2)]. The relative tumor volume was defined as [TVx/TV0], where TVx is the tumor volume in mm^3 at a given Day x, and TV0 is the tumor volume in mm^3 at Day 0. Endpoint criteria that required euthanasia were defined as (i) body mass loss of >15%, (ii) a tumor volume of >800 mm^3, (iii) a combination of body mass loss of >10% and a tumor volume of >700 mm^3 or, (iv) signs of unease and pain or a combination thereof using a scoring system as previously reported. The median survival of mice of each group was assessed with Kaplan–Meier curves. Potential early side effects for mice that survived until study end were determined based on blood chemistry and organ-to-brain mass ratios on Day 56 by comparison to values obtained from an additional group of therapy-naïve mice (n = 4) without tumors but of the same age (Supplementary Material: Section S9).
Table S10. Biodistribution data and tumor-to-background ratios obtained in PC3-PIP/flu tumor-bearing mice 48 h after injection of [225Ac]Ac-SibuDAB, [177Lu]Lu-SibuDAB, [225Ac]Ac-PSMA-617 or [177Lu]Lu-PSMA-617. Decay-corrected data of accumulated activity are shown as [% IA/g]-values, representing the average ± SD.
Biodistribution data at 48 h p.i.
1 Data of [177Lu]Lu-PSMA-617 were previously published by Benešová et al., Mol Pharm 2018 [2]; Copyright 2018, American Chemical Society.
Purpose: In order to determine the therapeutic efficacy of [225Ac]Ac-SibuDAB in com-parison to [225Ac]Ac-PSMA-617 as well as the 177Lu-labeled counterparts, therapy studies were conducted in PC-3 PIP xenograft-bearing BALB/c nude mice.
Methods: The methods of the therapy study to assess the therapeutic efficacy of [225Ac]Ac-SibuDAB are reported in the main manuscript. An additional group of mice was treated with 10 MBq (1 nmol) [177Lu]Lu-SibuDAB under the same experimental condi-tions. Data previously acquired by our group for mice treated with 5 MBq [177Lu]Lu-SibuDAB were published by Borgna & Deberle et al. and data of mice treated with 5 MBq or 10 MBq [177Lu]Lu-PSMA-617 were previously published by Tschan et al. and Umbricht et al., respectively.
Results: The assessment of the PSMA-specific therapeutic effect of [225Ac]Ac-SibuDAB as well as the comparison to [225Ac]Ac-PSMA-617 are described in the main ar-ticle. The body mass of effectively treated mice, in which the tumor disappeared entirely […]
tumor-bearing mice that were treated with only vehicle as well as for some mice that were treated with 5 kBq or 10 kBq [225Ac]Ac-PSMA-617 and experienced a relapse in tumor

“And” between values parts separate entries of the source, which are not always exact repeats. Equal values may be shown once. “Also recorded” adds a separate entry of the source.

Turning to `O=C([O-])CN1CCN(CC(=O)[O-])CCN(CC(=O)NCC2CCC(C(=O)NC(Cc3ccc4ccccc4c3)C(=O)NCCCCC(NC(=O)NC(CCC(=O)O)C(=O)O)C(=O)O)CC2)CCN(CC(=O)[O-])CC1.[225Ac+3]` (stereo not drawn) [[^225Ac]Ac-PSMA-617], for the setting “5 kBq”, the “Day of first endpoint” value was 42; the “Day of last endpoint” value was determined as 56; the “Median Survival” value is listed as 46 days; the “Number of Mice Alive on Day 56” value is “one out of six and 1/6”. The Tumor response entry (5 kBq) is given as “tumor regrowth was observed”. Besides, for the setting “10 kBq”, the “Day of first endpoint” value is 38; the “Day of last endpoint” value is on record as 56; the “Median Survival” value was >56 ^3 days; the “Number of Mice Alive on Day 56” value was “four out of six and 4/6”.

As to `CC(C)Cc1ccc(C(C)C(=O)NC(CCN)C(=O)NCCCCC(NC(=O)CN2CCN(CC(=O)[O-])CCN(CC(=O)[O-])CCN(CC(=O)[O-])CC2)C(=O)NCC2CCC(C(=O)NC(Cc3ccc4ccccc4c3)C(=O)NCCCCC(NC(=O)NC(CCC(=O)O)C(=O)O)C(=O)O)CC2)cc1.[225Ac+3]` (stereo not drawn) [[^225Ac]Ac-SibuDAB], the “Day of first endpoint” value reads like this: (5 kBq) 56 ^2; (10 kBq) 56 ^2; (30 kBq) 56 ^2. Besides, the “Day of last endpoint” value (5 kBq) is recorded as 56 ^2, the “Day of last endpoint” value (10 kBq) was 56 ^2 and the “Day of last endpoint” value (30 kBq) was 56 ^2. The “Median Survival” value (5 kBq) is >56 ^3 days, the “Median Survival” value (10 kBq) is reported as >56 ^3 days and the “Median Survival” value (30 kBq) was >56 ^3 days. The “Number of Mice Alive on Day 56” value is, setting by setting: (5 kBq) 6/6; (10 kBq) 6/6; (30 kBq) 4/4. The Tumor response entry is recorded as “sufficient to eradicate the tumors; also recorded: effectively eradicated tumors of all mice; also recorded: no tumors were visible at Day 56” (5 kBq); “no tumors were visible 56 days after; also recorded: no tumor visible on Day 56” (5 kBq, listed as [225Ac]Ac-SibuDAB); “effectively eradicated tumors of all mice” (10 kBq); “no tumor visible on Day 56” (10 kBq, listed as [225Ac]Ac-SibuDAB); “eradicated PSMA-positive PC-3 PIP tumors entirely” (30 kBq); “no tumor visible on Day 56” (30 kBq, listed as [225Ac]Ac-SibuDAB).
